Assay: xn = mol fraction of the nth substance listed
Settings: Liquid

c1ccc2[nH]ccc2c1 [1H-indole] + Cc1ccc2ccccc2c1
specific volume [m3/kg], 100 kPa
Settings | 293.15 K | 303.15 K | 313.15 K | 323.15 K | 333.15 K | 343.15 K | 353.15 K
x1 = 0.25 | 0.0009744 | 0.0009821 | 0.0009893 | 0.0009968 | 0.001005 | 0.001013 | 0.00102
x1 = 0.5 | 0.0009522 | 0.0009621 | 0.0009692 | 0.0009765 | 0.0009836 | 0.0009909 | 0.0009983
x1 = 0.75 | – | 0.0009406 | 0.0009471 | 0.0009539 | 0.0009609 | 0.0009674 | 0.0009747
x1 = 1 | – | – | – | 0.0009295 | 0.000936 | 0.0009428 | 0.0009499

specific volume [m3/kg], 333.15 K, Constant-volume piezometry
Settings | x1 = 0.25 | x1 = 0.5 | x1 = 0.75 | x1 = 1
100 kPa | 0.001005 | 0.0009836 | 0.0009609 | 0.000936
10000 kPa | 0.0009988 | 0.0009782 | 0.000956 | 0.0009315
20000 kPa | 0.000993 | 0.000973 | 0.0009513 | 0.0009273
30000 kPa | 0.0009876 | 0.0009679 | 0.0009467 | 0.0009228
40000 kPa | 0.0009824 | 0.0009633 | 0.0009422 | 0.0009192
50000 kPa | 0.0009776 | 0.0009586 | 0.0009379 | 0.0009157
60000 kPa | 0.0009732 | 0.0009544 | 0.0009341 | –
70000 kPa | 0.0009685 | 0.0009504 | 0.0009304 | –
80000 kPa | 0.0009645 | 0.0009464 | 0.0009267 | –
90000 kPa | 0.0009607 | 0.0009427 | 0.0009233 | –
100000 kPa | 0.0009569 | 0.0009391 | 0.0009198 | –
110000 kPa | 0.0009533 | 0.0009358 | 0.0009167 | –
120000 kPa | 0.0009497 | 0.0009325 | 0.0009134 | –
130000 kPa | 0.0009464 | 0.0009292 | 0.0009104 | –
140000 kPa | 0.0009432 | 0.0009262 | 0.0009077 | –
150000 kPa | 0.00094 | 0.0009231 | 0.0009048 | –
160000 kPa | 0.0009369 | 0.0009202 | 0.000902 | –
170000 kPa | 0.000934 | 0.0009174 | – | –
180000 kPa | – | 0.0009148 | – | –
190000 kPa | – | 0.0009122 | – | –
200000 kPa | – | 0.0009095 | – | –
210000 kPa | – | 0.000907 | – | –
220000 kPa | – | 0.0009047 | – | –
230000 kPa | – | 0.0009023 | – | –
240000 kPa | – | 0.0008999 | – | –
250000 kPa | – | 0.0008977 | – | –
260000 kPa | – | 0.0008956 | – | –
270000 kPa | – | 0.0008934 | – | –
